Data on 18 molecules can be found in US20260209226A1 (EmpathBio, Inc., priority 2023, published 2026).

pIC50: −log10 of the molar value. Where “and” joins values, the source holds several entries; their conditions need not be identical. Identical values can stand only once. Like-named read-outs stand apart in the source and are kept apart here. Bounds are passed on as bounds.

What all share (assay type): cell-based
For assay [1], the target named is T1, Human Serotonin Transporter (SERT) (Homo sapiens, UniProt P31645).
T1 construct: expressed in transfected cells; host or cells: HEK cells
T1 sequence (P31645 whole entry): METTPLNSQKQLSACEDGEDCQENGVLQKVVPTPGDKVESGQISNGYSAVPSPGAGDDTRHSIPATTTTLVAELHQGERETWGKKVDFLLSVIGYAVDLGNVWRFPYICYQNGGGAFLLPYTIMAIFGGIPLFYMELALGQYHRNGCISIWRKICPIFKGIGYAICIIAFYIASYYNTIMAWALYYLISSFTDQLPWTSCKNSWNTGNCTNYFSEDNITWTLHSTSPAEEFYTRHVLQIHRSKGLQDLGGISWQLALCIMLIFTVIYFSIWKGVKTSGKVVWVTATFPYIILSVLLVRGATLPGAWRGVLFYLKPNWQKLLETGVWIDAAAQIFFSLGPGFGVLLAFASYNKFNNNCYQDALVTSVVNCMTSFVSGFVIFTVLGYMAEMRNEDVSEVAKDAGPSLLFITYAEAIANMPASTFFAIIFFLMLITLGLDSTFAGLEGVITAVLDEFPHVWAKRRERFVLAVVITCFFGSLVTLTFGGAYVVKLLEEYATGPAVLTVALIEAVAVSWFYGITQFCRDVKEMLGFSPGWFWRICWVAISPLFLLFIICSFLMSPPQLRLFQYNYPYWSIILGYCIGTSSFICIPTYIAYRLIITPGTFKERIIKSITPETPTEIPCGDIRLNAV
Description: Human Serotonin Transporter (SERT) Uptake Inhibition Assay ([3H]-Serotonin uptake in HEK cells). The note with it: HEK cells expressing recombinant SERT, individual experiments separated by commas; for SERT UPTAKE INHIBITION (%) @1 uM: 1 uM test compound; for SERT UPTAKE INHIBITION (%) @100 uM: 100 uM test compound; for inhibition at 10 µM: HEK293, 10 uM test compound; for inhibition at 100 µM: HEK293, 100 uM test compound; for inhibition at 1 µM: HEK293, 1 uM test compound. The protocol:
Compound activity is assessed using an in vitro assay. Briefly, HEK cells expressing recombinant serotonin transporter (SERT) are plated at 50,000 cells/well on a 96 well plate pre-coated with Matrigel one day prior to the experiment. Culture medium (DMEM/FBS) is removed and 30 μl of assay buffer (Tris-HCl 50 mM, EDTA 4 mM, BDA 0.1%) with the desired concentration of test compound is added. The plate is incubated at 37° C. for 15 minutes. Assay buffer (30 μl) containing the same concentration of compound diluted in [^3H]-Serotonin uptake buffer (final concentration 10 nM) is added to each well and the plate is incubated at 37° C. for 5 minutes. The reaction mixture is removed, and the cells are washed with 100 μl ice-cold assay buffer twice. Lysis buffer (50 μl) is added to the cells followed by a 5 minute incubation with gentle shaking at room temperature. The lysate is transferred to a 96 well isoplate. Optiphase supermix (100 μl) is added to each well with complete mixing. Radioactivity is counted with Microbeta Counter and reported as counts per minute (CPM). Fluoxetine is used as a control to measure non-specific uptake and for data normalization. Percent inhibition of [^3H]-Serotonin uptake calculations: 100×(1−(CPMtest sample−CPMnon_specific uptake)/(CPMMAX−CPMMIN)) are summarized in Table 2. Subsequent experiments using the same assay were performed with select compounds with a greater range of concentrations (10 half-log dilutions from a top concentration of 100 μM), allowing for the determination of IC50s. IC50s were determined using the log(inhibitor) vs. normalized response—Variable slope model in GraphPad Prism 10.1.0 and are summarized in Table 3.

Assay [2] addresses T2, Human Dopamine Transporter (DAT) (Homo sapiens, UniProt Q01959).
T2 construct: expressed in transfected cells; host or cells: HEK cells
Briefly: Human Dopamine Transporter (DAT) Uptake Inhibition Assay ([3H]-Dihydroxyphenylethylamine uptake in HEK cells). The note with it: HEK cells expressing recombinant DAT, individual experiments separated by commas. The protocol:
(§1) Compound activity is assessed using an in vitro assay. Briefly, HEK cells expressing recombinant dopamine transporter (DAT) are plated at 50,000 cells/well on a 96 well plate pre-coated with Matrigel one day prior to the experiment. Culture medium (DMEM/FBS) is removed and 30 μl of assay buffer (Tris-HCl 50 mM, EDTA 4 mM, BDA 0.1%) with the desired concentration of test compound is added. The plate is incubated at 37° C. for 15 minutes. Assay buffer (30 μl) containing the same concentration of compound diluted in [^3H]-Dihydroxyphenylethylamine uptake buffer (final concentration 20 nM) is added to each well and the plate is incubated at 37° C.; for 5 minutes. The reaction mixture is removed, and the cells are washed with 100 μl ice-cold assay buffer twice. Lysis buffer (50 μl) is added to the cells followed by a 5 minute incubation with gentle shaking at room temperature. The lysate is transferred to a 96 well isoplate. Optiphase supermix (100 μl) is added to each well with complete mixing. Radioactivity is counted with Microbeta Counter and reported as CPM. Nomifensine is used as a control to measure non-specific uptake and for data normalization. Percent inhibition of [^3H]-Dihydroxyphenylethylamine uptake calculations: 100×(1−(CPMtest sample−CPMnon-specific uptake)/(CPMMAX−CPMMIN)). Test compounds were screened at 10 concentrations at half-log dilutions from a top concentration of 100 μM. IC50s were determined using the log(inhibitor) vs. normalized response—Variable slope model in GraphPad Prism 10.1.0 and are summarized in Table 3.

Assay [3] addresses T3, Human Norepinephrine Transporter (NET) (Homo sapiens, UniProt P23975).
T3 construct: expressed in transfected cells; host or cells: HEK cells
Description: Human Norepinephrine Transporter (NET) Uptake Inhibition Assay ([3H]-Norepinephrine uptake in HEK cells). The following applies: HEK cells expressing recombinant NET, individual experiments separated by commas. The procedure: as §1, with “Norepinephrine” for “dopamine”, “(NET)” for “(DAT)”, “[^3H]-Norepinephrine” for “[^3H]-Dihydroxyphenylethylamine”, “C.” for “C.;”, “Desiparmine” for “Nomifensine”, “100×(1−CPMtest sample−CPMnon_specific” for “100×(1−(CPMtest sample−CPMnon-specific”

Where [4] appears, read: 10 half-log dilutions from 100 μM, read-out: DAT Uptake Inhibition IC50.
Where [5] appears, read: 10 half-log dilutions from 100 μM, read-out: SERT Uptake Inhibition IC50.
Setting [6] is: 10 half-log dilutions from 100 μM, read-out: NET Uptake Inhibition IC50.

As usually defined, the inhibition is the change of the read-out against control, counted positive when it falls. What is called pIC50 is −log10 of the IC50, conventionally taken in molar units.

T3 sequence (P23975 whole entry): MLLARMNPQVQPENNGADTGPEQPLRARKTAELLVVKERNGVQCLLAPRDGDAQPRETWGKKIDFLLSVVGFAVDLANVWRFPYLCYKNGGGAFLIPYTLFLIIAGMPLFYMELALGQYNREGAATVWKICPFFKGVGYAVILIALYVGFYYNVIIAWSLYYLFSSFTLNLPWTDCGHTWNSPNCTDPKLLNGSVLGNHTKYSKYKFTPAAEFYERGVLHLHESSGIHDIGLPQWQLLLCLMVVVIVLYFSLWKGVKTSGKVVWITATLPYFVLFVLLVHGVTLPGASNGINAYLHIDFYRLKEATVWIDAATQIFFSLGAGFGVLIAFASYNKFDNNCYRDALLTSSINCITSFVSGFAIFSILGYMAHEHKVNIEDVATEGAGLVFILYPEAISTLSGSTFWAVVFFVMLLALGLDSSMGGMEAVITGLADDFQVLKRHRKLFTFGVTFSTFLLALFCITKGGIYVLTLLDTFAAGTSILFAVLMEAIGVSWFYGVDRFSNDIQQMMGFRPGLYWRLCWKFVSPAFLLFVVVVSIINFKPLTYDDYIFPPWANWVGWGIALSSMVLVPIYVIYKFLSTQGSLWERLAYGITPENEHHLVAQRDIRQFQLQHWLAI
T2 sequence (Q01959 whole entry): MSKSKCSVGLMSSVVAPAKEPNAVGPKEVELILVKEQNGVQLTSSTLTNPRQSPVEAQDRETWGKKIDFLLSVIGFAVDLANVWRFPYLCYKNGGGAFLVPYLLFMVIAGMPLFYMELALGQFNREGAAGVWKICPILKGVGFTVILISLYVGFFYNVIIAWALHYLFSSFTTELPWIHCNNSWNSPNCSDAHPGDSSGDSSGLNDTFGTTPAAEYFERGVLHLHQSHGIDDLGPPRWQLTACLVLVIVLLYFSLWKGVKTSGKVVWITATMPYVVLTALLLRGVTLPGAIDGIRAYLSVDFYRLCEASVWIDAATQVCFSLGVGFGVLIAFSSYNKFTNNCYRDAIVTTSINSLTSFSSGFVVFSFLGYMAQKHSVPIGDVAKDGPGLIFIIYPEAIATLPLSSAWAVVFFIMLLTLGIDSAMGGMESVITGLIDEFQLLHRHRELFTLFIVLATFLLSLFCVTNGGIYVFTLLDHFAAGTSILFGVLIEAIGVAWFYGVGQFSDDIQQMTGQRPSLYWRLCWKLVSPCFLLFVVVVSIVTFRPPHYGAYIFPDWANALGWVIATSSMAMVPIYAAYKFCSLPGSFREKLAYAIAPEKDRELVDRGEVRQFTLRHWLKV

For `CNC(C)Cc1ccc2c(c1)OCO2` (stereo not drawn) [18 MDMA, 3,4-methylenedioxymethamphetamine, reference compound], the “SERT UPTAKE INHIBITION (%) @1 uM” value in assay [1] was 25.0% and −1.67%. Besides, the “SERT UPTAKE INHIBITION (%) @10 uM” value in assay [1] (10 uM test compound, 10 µM) was found to be 70.1%. For the same molecule, the “SERT UPTAKE INHIBITION (%) @100 uM” value in assay [1] was 88.7% and 98.0% and 86.2%. Moreover, the inhibition at 10 µM in assay [1] was 53.3%. The inhibition at 100 µM in assay [1] worked out at 85.1%. Further, the pIC50 in assay [1] (SERT Uptake Inhibition IC50, 10 half-log dilutions from 100 μM) is 5.28 and 5.29 and 5.50 and 5.83 and 5.68 and 5.66; in assay [2] (setting [4]) it was 5.28; in assay [2] (DAT Uptake Inhibition IC50, 10 half-log dilutions from 100 μM), 5.46 and 5.26 and 5.13 and 4.99 and 4.87; in assay [3] (NET Uptake Inhibition IC50, 10 half-log dilutions from 100 μM), 5.85 and 5.63 and 6.03 and 5.87 and 5.64 and 5.54.

Turning to `CN[C@@H](C)Cc1ccc2ncsc2c1` [Compound 16, (S)-1-(benzo[d]thiazol-6-yl)-N-methylpropan-2-amine], the results for the pIC50 in assay [1] (setting [5]), in assay [2] (setting [4]) and in assay [3] (setting [6]) were 5.29, < 4.00 and 5.38, respectively. In addition, the inhibition at 10 µM in assay [1] stood at 57.7%. In addition, the inhibition at 100 µM in assay [1] is 99.1%.

As to `CNC(C)Cc1ccn2ccnc2c1` (stereo not drawn) [Compound 1], in assay [1], the inhibition at 1 µM stood at 3.6% and the inhibition at 100 µM turned out to be 91.6%.

Turning to `CNC(C)Cc1ccc2ncsc2c1` (stereo not drawn) [Compound 2], in assay [1], the “SERT UPTAKE INHIBITION (%) @1 uM” value was 43.44% and −5.16%; the “SERT UPTAKE INHIBITION (%) @100 uM” value was 93.94% and 91.08%; the inhibition at 10 µM turned out to be 67.9%; the inhibition at 100 µM is 88.8%. In addition, the pIC50 in assay [1] (setting [5]) was 4.99. For the same molecule, the negative logarithm of the IC50 (pIC50) in assay [2] (setting [4]) is 4.66. In addition, in assay [3] (setting [6]), the negative logarithm of the IC50 (pIC50) was 5.33.

In the case of `CC(N)Cc1ccc2ncnn2c1` (stereo not drawn) [Compound 13], in assay [1], the inhibition at 10 µM was determined as 1.34% and the inhibition at 100 µM was found to be 73.1%.

Regarding `CC(N)Cc1ccc2conc2c1` (stereo not drawn) [Compound 11, 1-(2,1-benzoxazol-6-yl) propan-2-amine], in assay [1], the inhibition at 10 µM came out at 45.5% and the inhibition at 100 µM was determined as 96.6%.

As to `CN[C@H](C)Cc1ccc2ncsc2c1` [Compound 17, (R)-1-(benzo[d]thiazol-6-yl)-N-methylpropan-2-amine], in assay [1], the inhibition at 10 µM stood at 32.5% and the inhibition at 100 µM was 95.7%.

In the case of `CNC(C)Cc1ccn2ncnc2c1` (stereo not drawn) [Compound 3], in assay [1], the “SERT UPTAKE INHIBITION (%) @1 uM” value was −1.21% and −1.77%; the “SERT UPTAKE INHIBITION (%) @100 uM” value is on record as 69.13%; the inhibition at 100 µM is 78.4%.

As to `CC(N)Cc1ccc2scnc2c1` (stereo not drawn) [Compound 8], in assay [1], the “SERT UPTAKE INHIBITION (%) @100 uM” value is listed as 90.93%, the inhibition at 1 µM came to 24%, the inhibition at 10 µM amounted to 68.7% and the inhibition at 100 µM worked out at 82.4%. In assay [1] (setting [5]), the negative-log IC50 (pIC50) is 4.94. Moreover, in assay [2] (setting [4]), the pIC50 is 4.68. Moreover, in assay [3] (setting [6]), the pIC50 was < 4.00.

`CC(N)Cc1ccc2ncoc2c1` (stereo not drawn) [Compound 9, 1-(benzo[d]oxazol-6-yl)propan-2-amine]: in assay [1], the inhibition at 10 µM was -2.39% and the inhibition at 100 µM stood at 87.9%.

Regarding `CNC(C)Cc1ccc2scnc2c1` (stereo not drawn) [Compound 4], in assay [1], the “SERT UPTAKE INHIBITION (%) @100 uM” value turned out to be 87.43%, the inhibition at 1 µM was found to be 20.2%, the inhibition at 10 µM worked out at 61.8% and the inhibition at 100 µM was 91.5%. In addition, the pIC50 in assay [1] (setting [5]) was 4.95. Also, the pIC50 in assay [2] (setting [4]) is 4.45. For the same molecule, in assay [3] (setting [6]), the negative-log IC50 (pIC50) was 5.08.

For `CC(N)Cc1ccn2ncnc2c1` (stereo not drawn) [Compound 7], in assay [1], the “SERT UPTAKE INHIBITION (%) @1 uM” value was 11.89% and −1.06%; the “SERT UPTAKE INHIBITION (%) @100 uM” value is 84.23% and 59.35%.

As to `CC(N)Cc1ccn2ccnc2c1` (stereo not drawn) [Compound 5], in assay [1], the inhibition at 1 µM is -0.48% and the inhibition at 100 µM is 90.2%.

Consider `C[C@H](N)Cc1ccc2ncsc2c1` [Compound 14, (S)-1-(benzo[d]thiazol-6-yl)propan-2-amine], for which the results for the pIC50 in assay [1] (setting [5]), in assay [2] (setting [4]) and in assay [3] (setting [6]) were 5.18, < 4.00 and 5.24, respectively. The inhibition at 10 µM in assay [1] was 46.6%. The inhibition at 100 µM in assay [1] came out at 98.9%.

As to `CC(N)Cc1ccc2ncsc2c1` (stereo not drawn) [Compound 6], in assay [1], the “SERT UPTAKE INHIBITION (%) @1 uM” value was 51.1% and 4.94%; the “SERT UPTAKE INHIBITION (%) @100 uM” value worked out at 96.89%; the inhibition at 100 µM amounted to 94.6%. In assay [1] (setting [5]), the pIC50 is 5.12. For the same molecule, the pIC50 in assay [2] (setting [4]) was < 4.00. Further, the pIC50 in assay [3] (setting [6]) is 5.96.

As to `C[C@@H](N)Cc1ccc2ncsc2c1` [Compound 15, (R)-1-(benzo[d]thiazol-6-yl)propan-2-amine], in assay [1], the inhibition at 10 µM was determined as 38% and the inhibition at 100 µM was found to be 97.5%.

For `CNC(C)Cc1ccc2ncnn2c1` (stereo not drawn) [Compound 12, methyl(1-{[1,2,4]triazolo[1,5-a]pyridin-6-yl}propan-2-yl)amine], in assay [1], the inhibition at 10 µM was 0.25% and the inhibition at 100 µM came out at 83.2%.

With `CNC(C)Cc1ccc2conc2c1` (stereo not drawn) [Compound 10, [1-(2,1-benzoxazol-6-yl)propan-2-yl](methyl)amine], in assay [1], the inhibition at 10 µM worked out at 48.3% and the inhibition at 100 µM was determined as 96.8%.
